Measurements taken from BindingDB's records for doi:10.1021/acs.jmedchem.2c01521 (Merck, 2023).

Biological target: cAMP and cAMP-inhibited cGMP 3',5'-cyclic phosphodiesterase 10A (Homo sapiens, UniProt Q9Y233)
Experiment: Inhibition of human PDE10A2 transfected in human AD293 cells cytosolic fraction using cAMP as substrate by fluorescence polarization assay

Sequence of cAMP and cAMP-inhibited cGMP 3',5'-cyclic phosphodiesterase 10A (Q9Y233 whole entry): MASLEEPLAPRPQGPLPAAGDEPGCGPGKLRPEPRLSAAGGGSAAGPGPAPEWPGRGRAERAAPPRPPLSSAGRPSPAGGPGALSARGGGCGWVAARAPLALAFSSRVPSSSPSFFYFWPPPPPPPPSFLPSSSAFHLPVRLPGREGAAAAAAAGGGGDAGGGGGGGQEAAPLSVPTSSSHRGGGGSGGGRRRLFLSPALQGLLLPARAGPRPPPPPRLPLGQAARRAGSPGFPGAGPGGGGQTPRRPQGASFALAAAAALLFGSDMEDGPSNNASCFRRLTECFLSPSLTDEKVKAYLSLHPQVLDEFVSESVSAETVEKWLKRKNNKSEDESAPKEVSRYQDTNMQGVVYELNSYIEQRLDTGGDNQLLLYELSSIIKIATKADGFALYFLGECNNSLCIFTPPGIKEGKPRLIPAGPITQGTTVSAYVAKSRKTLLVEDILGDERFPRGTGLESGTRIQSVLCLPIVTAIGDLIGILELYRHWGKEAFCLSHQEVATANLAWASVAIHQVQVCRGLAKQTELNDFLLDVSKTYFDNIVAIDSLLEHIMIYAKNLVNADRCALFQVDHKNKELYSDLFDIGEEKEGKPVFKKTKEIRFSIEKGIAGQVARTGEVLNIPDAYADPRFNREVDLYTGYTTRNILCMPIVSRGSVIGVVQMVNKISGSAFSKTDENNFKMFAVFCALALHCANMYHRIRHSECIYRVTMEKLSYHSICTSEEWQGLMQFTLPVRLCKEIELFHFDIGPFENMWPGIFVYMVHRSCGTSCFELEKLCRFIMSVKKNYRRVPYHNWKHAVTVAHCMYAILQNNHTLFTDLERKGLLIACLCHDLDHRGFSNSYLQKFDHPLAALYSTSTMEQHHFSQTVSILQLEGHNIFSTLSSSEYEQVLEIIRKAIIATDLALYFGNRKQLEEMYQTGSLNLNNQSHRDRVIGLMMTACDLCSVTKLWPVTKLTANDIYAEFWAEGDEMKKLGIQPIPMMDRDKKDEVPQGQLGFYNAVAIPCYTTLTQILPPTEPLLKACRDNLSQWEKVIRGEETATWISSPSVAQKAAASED

Cc1cnc(OC[C@H]2C[C@@H]2c2ccccn2)cc1NCc1cnn(C)c1
Ki: 7.8 nM
